For assay [1], the target named is T1, Prothrombin (Homo sapiens, UniProt P00734). Put plainly: Inhibition of human thrombin at 1 ug/ml preincubated for 10 mins followed by Ac-FVR-AMC substrate addition measured within 10 mins by fluorescence assay relative to control.
Assay [2] has as its target T1, Prothrombin. Put plainly: Inhibition of human thrombin preincubated for 10 mins followed by Ac-FVR-AMC substrate addition measured within 10 mins by fluorescence assay. The note with it: for pIC50: read-out: IC50; for IC50: read-out: pIC50 (converted).
Another assay relates to Rattus norvegicus. As to the kind of experiment: Anticoagulant activity in Sprague-Dawley rat assessed as inhibition of arteriovenous thrombosis at 0.5 mg/ml administered 3 days prior to testing measured on day 4 relative to control. In kind it is functional.

From ChEMBL document CHEMBL3797073 (Bioorg Med Chem, 2016) come the findings set out here.

pIC50: −log10 of the molar value.

For orientation: inhibition means the percentage by which the read-out fell short of the control. High values mean a strong effect, low ones a weak effect. Broadly, the pIC50 is the IC50 on a negative log10 scale, so that one unit is a factor of ten. On to `CCn1c(CNc2ccc(C(=N)N)cc2F)nc2cc(C(=O)N(CCC(=O)O)c3ccc(C)c(C)c3)ccc21`, for which the inhibition at Prothrombin [1] turned out to be 91.6%. At Prothrombin [2], the pIC50 is 8.00.
As to `CCn1c(CNc2ccc(C(=N)N)cc2F)nc2cc(C(=O)N(CCC(=O)O)c3ccc(F)cc3F)ccc21`, the inhibition against Prothrombin [1] turned out to be 92.5%. On Prothrombin [2], the pIC50 was 8.49 and the IC50 was 3.24 nM. Further, the “inhibition (INH)” value with Rattus norvegicus worked out at 76.23%.
In turn, `CCn1c(CNc2ccc(C(=N)N)cc2F)nc2cc(C(=O)N(CCC(=O)O)c3cccc(C)n3)ccc21` gave an inhibition against Prothrombin [1] of 93.6%. Also, at Prothrombin [2], the negative logarithm of the IC50 (pIC50) is 8.67 and the IC50 is 2.14 nM. Besides, the “inhibition (INH)” value with Rattus norvegicus worked out at 84.66%.
`CCn1c(CNc2ccc(C(=N)N)cc2F)nc2cc(C(=O)N(CCC(=O)O)c3c(C)cccc3C)ccc21` displayed an inhibition at Prothrombin [1] of 92.5%. Also, at Prothrombin [2], the pIC50 was 8.74 and the IC50 was 1.82 nM.
On to `CCn1c(CNc2ccc(C(=N)N)cc2F)nc2cc(C(=O)N(CCC(=O)O)c3ccc(C)cc3)ccc21`, for which the inhibition against Prothrombin [1] was determined as 88.2%.
For `CCn1c(CNc2ccc(C(=N)N)cc2F)nc2cc(C(=O)N(CCC(=O)O)c3ccc(F)c(F)c3)ccc21`, the inhibition against Prothrombin [1] was found to be 93.8%. On Prothrombin [2], the pIC50 was 8.04 and the IC50 was 9.12 nM.
As for `CCn1c(CNc2ccc(C(=N)N)cc2F)nc2cc(C(=O)N(CCC(=O)O)c3cc(C)ccc3C)ccc21`, on Prothrombin [1], the inhibition is 93%. On Prothrombin [2], the pIC50 was 8.25 and the IC50 is 5.62 nM.
Turning to `CCn1c(CNc2ccc(C(=N)N)cc2F)nc2cc(C(=O)N(CCC(=O)O)c3cccc(C)c3)ccc21`, on Prothrombin [1], the inhibition came out at 92.8%. In addition, on Prothrombin [2], the pIC50 is 8.26 and the IC50 is 5.5 nM.
On Prothrombin [1], `CCn1c(CNc2ccc(C(=N)N)cc2F)nc2cc(C(=O)N(CCC(=O)O)c3cc(C)ccn3)ccc21` returned an inhibition of 92%. In addition, on Prothrombin [2], the pIC50 was 8.43 and the IC50 was 3.72 nM.
At Prothrombin [1], `CCn1c(CNc2ccc(C(=N)N)cc2F)nc2cc(C(=O)N(CCC(=O)O)c3ccc(C)c(F)c3)ccc21` showed an inhibition of 87.5%.
Regarding `Cn1c(CNc2ccc(C(=N)N)cc2)nc2cc(C(=O)N(CCC(=O)O)c3ccccn3)ccc21` [DABIGATRAN], in the assay on Rattus norvegicus, the “inhibition (INH)” value worked out at 85.07%.
As for `CCn1c(CNc2ccc(C(=N)N)cc2F)nc2cc(C(=O)N(CCC(=O)O)c3ccc(C)cc3C)ccc21`, the inhibition against Prothrombin [1] worked out at 91.9%. Moreover, on Prothrombin [2], the pIC50 was 8.14 and the IC50 was 7.24 nM.
`CCn1c(CNc2ccc(C(=N)N)cc2F)nc2cc(C(=O)N(CCC(=O)O)c3cc(F)cc(F)c3)ccc21` showed an inhibition on Prothrombin [1] of 91.2%.
For `CCn1c(CNc2ccc(C(=N)N)cc2F)nc2cc(C(=O)N(CCC(=O)O)c3cc(C)cc(C)c3)ccc21`, at Prothrombin [1], the inhibition worked out at 89%.
At Prothrombin [1], `CCn1c(CNc2ccc(C(=N)N)cc2F)nc2cc(C(=O)N(CCC(=O)O)c3ccc(F)c(C)c3)ccc21` had an inhibition of 92.5%. For the same compound, on Prothrombin [2], the pIC50 is 8.38 and the IC50 is 4.17 nM.
For `CCn1c(CNc2ccc(C(=N)N)cc2F)nc2cc(C(=O)N(CCC(=O)O)c3cccc(C)c3C)ccc21`, the inhibition at Prothrombin [1] turned out to be 93.2%. Further, at Prothrombin [2], the pIC50 is 8.31 and the IC50 is 4.9 nM.
